Assay results from patent US12692233B2, “Anthelmintic compounds comprising a pyridine structure” (Intervet Inc., priority 2020, dated 2026).

How the values were obtained:
[1] = target: T1, human Maxi K channel (BK channel) (Homo sapiens, UniProt Q12791); test: Agonistic activity at the human Maxi K channel (BK channel), FLIPR membrane potential in CHO K1 cells; format: cell-based; details: CHO K1 cells stably transfected with KCNMA1 and beta1 (KCNMB1) subunits, membrane potential dye
T1 construct: expressed in transfected cells; host or cells: CHO K1
T1 sequence (Q12791 1-1178 isoform Q12791-5): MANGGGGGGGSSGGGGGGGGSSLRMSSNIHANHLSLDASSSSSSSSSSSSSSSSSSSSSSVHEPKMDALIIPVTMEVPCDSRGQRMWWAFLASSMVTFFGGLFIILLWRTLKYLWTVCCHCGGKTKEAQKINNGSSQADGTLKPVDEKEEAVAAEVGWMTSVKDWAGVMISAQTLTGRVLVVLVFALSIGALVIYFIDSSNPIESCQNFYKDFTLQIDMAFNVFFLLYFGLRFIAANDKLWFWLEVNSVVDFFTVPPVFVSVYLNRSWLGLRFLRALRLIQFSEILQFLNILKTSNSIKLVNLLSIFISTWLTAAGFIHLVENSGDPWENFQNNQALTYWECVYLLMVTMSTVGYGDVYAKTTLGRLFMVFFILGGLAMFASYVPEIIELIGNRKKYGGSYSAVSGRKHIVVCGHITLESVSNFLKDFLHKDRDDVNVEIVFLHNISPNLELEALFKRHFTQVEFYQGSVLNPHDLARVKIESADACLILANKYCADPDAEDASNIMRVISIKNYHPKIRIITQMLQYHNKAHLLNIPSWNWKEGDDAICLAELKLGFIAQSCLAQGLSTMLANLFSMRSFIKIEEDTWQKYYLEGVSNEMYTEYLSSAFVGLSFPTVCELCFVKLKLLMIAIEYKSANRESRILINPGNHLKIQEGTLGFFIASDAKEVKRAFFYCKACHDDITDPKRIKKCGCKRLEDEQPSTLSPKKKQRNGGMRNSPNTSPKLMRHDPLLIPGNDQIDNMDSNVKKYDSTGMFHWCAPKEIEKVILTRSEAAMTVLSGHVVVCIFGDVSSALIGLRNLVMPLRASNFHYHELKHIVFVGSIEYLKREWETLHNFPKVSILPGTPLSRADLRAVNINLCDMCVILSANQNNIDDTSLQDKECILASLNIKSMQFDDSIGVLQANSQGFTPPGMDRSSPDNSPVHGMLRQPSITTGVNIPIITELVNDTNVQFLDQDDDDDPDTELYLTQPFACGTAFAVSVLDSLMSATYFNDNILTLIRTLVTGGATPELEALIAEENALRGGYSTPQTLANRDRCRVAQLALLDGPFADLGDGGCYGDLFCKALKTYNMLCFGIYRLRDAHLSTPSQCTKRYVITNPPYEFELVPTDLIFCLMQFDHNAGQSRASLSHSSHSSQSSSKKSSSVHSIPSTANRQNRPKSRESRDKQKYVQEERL
T1 sequence (Q16558 whole entry partner): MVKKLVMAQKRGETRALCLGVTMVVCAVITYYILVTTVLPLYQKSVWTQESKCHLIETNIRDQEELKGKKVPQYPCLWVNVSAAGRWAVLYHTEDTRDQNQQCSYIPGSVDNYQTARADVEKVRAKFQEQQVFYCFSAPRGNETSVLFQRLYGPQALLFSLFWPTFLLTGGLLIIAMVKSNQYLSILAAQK
Text: A CHO K1 cell line was stably transfected with the KCNMA1 (KCa1.1, U11058) and beta1 (KCNMB1) subunits of the human Maxi K channel (Ponte et al, Molecular Pharmacology 2012, 81(4), 567-577).
The complete measurement takes 150 s.

[2] = target: C. elegans Slo-1a (Caenorhabditis elegans, UniProt Q95V25); test: Agonistic activity at C. elegans Slo-1a, FLIPR membrane potential in CHO K1 cells; details: EC50 agonistic activity at C. elegans Slo-1a, CHO K1 cells stably transfected with slo-1a, membrane potential dye
C. elegans Slo-1a, sequence (Q95V25 whole entry): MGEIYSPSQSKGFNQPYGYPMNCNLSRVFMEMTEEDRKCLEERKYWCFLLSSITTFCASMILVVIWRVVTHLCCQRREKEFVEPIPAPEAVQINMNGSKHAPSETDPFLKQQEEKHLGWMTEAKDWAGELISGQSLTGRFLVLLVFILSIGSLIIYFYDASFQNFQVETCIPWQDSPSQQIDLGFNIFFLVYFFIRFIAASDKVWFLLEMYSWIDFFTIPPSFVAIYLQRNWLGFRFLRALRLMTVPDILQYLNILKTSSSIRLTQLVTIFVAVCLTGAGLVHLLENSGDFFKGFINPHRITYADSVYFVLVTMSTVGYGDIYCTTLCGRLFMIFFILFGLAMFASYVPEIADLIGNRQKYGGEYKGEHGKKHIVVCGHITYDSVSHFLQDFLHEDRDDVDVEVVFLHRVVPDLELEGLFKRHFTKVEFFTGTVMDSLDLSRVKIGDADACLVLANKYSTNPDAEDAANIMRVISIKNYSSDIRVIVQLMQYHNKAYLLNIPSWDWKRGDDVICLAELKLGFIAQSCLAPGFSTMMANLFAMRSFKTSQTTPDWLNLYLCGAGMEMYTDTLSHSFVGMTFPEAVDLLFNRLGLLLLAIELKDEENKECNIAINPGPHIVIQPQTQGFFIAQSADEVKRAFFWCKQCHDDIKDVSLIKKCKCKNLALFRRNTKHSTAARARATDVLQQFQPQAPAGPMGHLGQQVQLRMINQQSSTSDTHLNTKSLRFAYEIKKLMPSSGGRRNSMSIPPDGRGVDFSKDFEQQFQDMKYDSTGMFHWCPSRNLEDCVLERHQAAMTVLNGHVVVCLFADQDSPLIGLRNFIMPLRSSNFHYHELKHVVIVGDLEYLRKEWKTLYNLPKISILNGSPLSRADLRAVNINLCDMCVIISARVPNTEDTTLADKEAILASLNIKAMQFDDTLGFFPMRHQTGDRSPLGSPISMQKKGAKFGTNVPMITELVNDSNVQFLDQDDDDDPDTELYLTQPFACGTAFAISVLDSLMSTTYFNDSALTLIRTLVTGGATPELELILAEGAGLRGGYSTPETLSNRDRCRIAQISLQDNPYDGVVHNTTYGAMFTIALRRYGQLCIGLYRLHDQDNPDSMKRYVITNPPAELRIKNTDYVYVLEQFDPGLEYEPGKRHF

[3] = system: Oesophagostumum dentatum; test: In vitro assay Oesophagostumum dentatum larval stage 3; format: cell-based; details: larval stage 3, 20 larvae per well, microscopic examination; read-out: MEC (minimum effective concentration) against Oesophagostumum dentatum L3
Text: (§1) […] galli (intestinal roundworm of chicken), larval stage 3 (“L3”); and Oesophagostumum dentatum (nodular worm of swine), larval stages 3 and 4 (respectively “L3” and “L4”) where suspended in a nutrient medium and distributed to 96 well plates with 20 larvae per well. The wells were spiked DMSO solutions of the compounds with declining concentration.

[4] = system: Ascaridia galli; test: In vitro assay Ascaridia galli larval stage 3; format: cell-based; details: larval stage 3, 20 larvae per well, microscopic examination, read-out: MEC (minimum effective concentration) against Ascaridia galli L3
Text: as §1

Structure (SMILES)	EC50 [1] [µM]	EC50 [2] [µM]	minimal effective concentration [3] [µM]	minimal effective concentration [4] [µM]
CCSc1cc(Oc2cccc(Cl)c2Cl)ncc1C(=O)N[C@H]1CCCc2ccccc21 [Compound 76]	> 30			
CCOc1cc(Sc2cc(Cl)cc(Cl)c2)ncc1C(=O)N[C@H]1CCCc2ccccc21 [Compound 99]	> 30		≤ 50	
CCOc1cc(Sc2cccc(Cl)c2Cl)ncc1C(=O)N[C@H]1CCCc2ccccc21 [Compound 70]	> 30			
CCSc1cc(Sc2cccc(Cl)c2Cl)ncc1C(=O)N[C@H]1CCOc2ccccc21 [Compound 63]	> 30			
CCSc1cc(Oc2cc(Cl)cc(Cl)c2)ncc1C(=O)N[C@H]1CCCc2ccccc21 [Compound 79]	> 30			
CSc1cc(Sc2cc(Cl)cc(Cl)c2)ncc1C(=O)N[C@H]1CCc2ccccc21 [Compound 65]	> 30	< 10		
CCSc1cc(Sc2cccc(Cl)c2Cl)ncc1C(=O)N[C@H]1CCc2ccccc21 [Compound 64]	> 30			
CSc1cc(Oc2cccc(Cl)c2Cl)ncc1C(=O)N[C@H]1CCc2ccccc21 [Compound 58]	> 30	< 10		≤ 50
CN(C)c1cc(Sc2cccc(Cl)c2Cl)ncc1C(=O)Nc1cccc2ccccc12 [Compound 43]	> 30			
CCSc1cc(Oc2cccc(Cl)c2Cl)ncc1C(=O)N[C@H]1CCOc2ccccc21 [Compound 77]	> 30			
CCSc1cc(Sc2cc(Cl)cc(Cl)c2)ncc1C(=O)N[C@H]1CCCc2ccccc21 [Compound 75]	> 30			
CN(C)c1cc([S+]([O-])c2cc(Cl)cc(Cl)c2)ncc1C(=O)N[C@H]1CCc2ccccc21 (stereo partly drawn) [Compound 104, 6-((3,5-dichlorophenyl)sulfinyl)-N—((S)-2,3-dihydro-1H-inden-1-yl)-4-(dimethylamino)nicotinamide]	> 30			
CCOc1cc(Sc2cc(Cl)cc(Cl)c2)ncc1C(=O)N[C@H]1CCOc2ccccc21 [Compound 88]	> 30	< 10		
CCSc1cc(Oc2cc(Cl)cc(Cl)c2)ncc1C(=O)N[C@H]1CCc2ccccc21 [Compound 81]	> 30			
CN(C)c1cc(S(=O)(=O)c2cc(Cl)cc(Cl)c2)ncc1C(=O)N[C@H]1CCc2ccccc21 [Compound 105]	> 30			
CN(C)c1cc(Sc2cccc(Cl)c2Cl)ncc1C(=O)N[C@H]1CCCc2ccccc21 [Compound 19]	> 30	< 1		≤ 50

Structure (SMILES)	EC50 [1] [µM]	EC50 [2] [µM]	minimal effective concentration [3] [µM]	minimal effective concentration [4] [µM]
CN(C)c1cc(Nc2cc(Cl)cc(Cl)c2)ncc1C(=O)N[C@H]1CCCc2ccccc21 [Compound 108]	> 30	< 10		≤ 50
CSc1cc(Sc2cc(Cl)cc(Cl)c2)ncc1C(=O)N[C@H]1CCCc2ccccc21 [Compound 69]	> 30	< 10		
CSc1cc(Sc2cccc(Cl)c2Cl)ncc1C(=O)N[C@H]1CCCc2ccccc21 [Compound 54]	> 30	< 10		≤ 50
CN(C)c1cc(Sc2cccc(Cl)c2Cl)ncc1C(=O)N[C@H]1CCOc2ccccc21 [Compound 20]	> 30	< 1		
CCOc1cc(Oc2cccc(Cl)c2Cl)ncc1C(=O)N[C@H]1CCCc2ccccc21 [Compound 91]	> 30			
CCOc1cc(Oc2cccc(Cl)c2Cl)ncc1C(=O)N[C@H]1CCc2ccccc21 [Compound 93]	> 30			
CSc1cc(Oc2cccc(Cl)c2Cl)ncc1C(=O)N[C@H]1CCCc2ccccc21 [Compound 56]	> 30	< 10		≤ 50
O=C(N[C@H]1CCOc2ccccc21)c1cnc(Sc2cccc(Cl)c2Cl)cc1N1CCOCC1 [Compound 22]	> 30	< 1		
CCSc1cc(Oc2cccc(Cl)c2Cl)ncc1C(=O)N[C@H]1CCc2ccccc21 [Compound 78]	> 30			
CCOc1cc(Sc2cccc(Cl)c2Cl)ncc1C(=O)N[C@H]1CCOc2ccccc21 [Compound 71]	> 30	< 10		
CN(C)c1cc(Sc2cc(Cl)cc(Cl)c2)ncc1C(=O)N[C@H]1CCc2ccccc21 [Compound 15]	> 30	< 1		
CN(C)c1cc(Sc2cccc(Cl)c2Cl)ncc1C(=O)Nc1csc2ccccc12 [Compound 44]	> 30			
CN(C)c1cc(Sc2cc(Cl)cc(Cl)c2)ncc1C(=O)N[C@H]1CCOc2ccccc21 [Compound 13]	> 30			
CN(C)c1cc(Sc2cc(Cl)cc(Cl)c2)ncc1C(=O)N[C@H]1CCCc2ccccc21 [Compound 14]	> 30	< 10		≤ 50
CN(C)c1cc(Sc2cccc(Cl)c2Cl)ncc1C(=O)N[C@H]1CCc2ccccc21 [Compound 42]	> 30	< 1		

The next lines start with results.

EC50 [1] [µM]	EC50 [2] [µM]	Structure (SMILES)	minimal effective concentration [3] [µM]	minimal effective concentration [4] [µM]
> 30	< 1	O=C(N[C@H]1CCOc2ccccc21)c1cnc(Sc2cc(Cl)cc(Cl)c2)cc1N1CCOCC1 [Compound 3, (S)—N-(chroman-4-yl)-6-((3,5-dichlorophenyl)thio)-4-morpholinonicotinamide]		
> 30	< 1	CN(C)c1cc(Oc2cc(Cl)cc(Cl)c2)ncc1C(=O)N[C@H]1CCc2ccccc21 [Compound 31]		
> 30	< 1	CN(C)c1cc(Oc2cc(Cl)cc(Cl)c2)ncc1C(=O)N[C@H]1CCCc2ccccc21 [Compound 28]		≤ 50
> 30	< 10	O=C(N[C@H]1CCCc2ccccc21)c1cnc(Nc2cc(Cl)cc(Cl)c2)cc1N1CCOCC1 [Compound 106]		≤ 50
> 30		COc1cc(Oc2cc(Cl)cc(Cl)c2)ncc1C(=O)N[C@H]1CCc2ccccc21 [Compound 87]		
> 30		O=C(N[C@@H]1CCOc2ccccc21)c1cnc(Oc2cccc(Cl)c2Cl)cc1N1CCOCC1 [Compound 51]		
> 30		CCSc1cc(Oc2cc(Cl)cc(Cl)c2)ncc1C(=O)N[C@H]1CCOc2ccccc21 [Compound 80]		≤ 50
> 30		CN(C)c1cc(Sc2cc(Cl)cc(Cl)c2)ncc1C(=O)Nc1csc2ccccc12 [Compound 33]		≤ 50
> 30		O=C(Nc1cccc2ccccc12)c1cnc(Oc2cc(Cl)cc(Cl)c2)cc1N1CCOCC1 [Compound 26]		≤ 50
> 30		O=C(Nc1csc2ccccc12)c1cnc(Oc2cc(Cl)cc(Cl)c2)cc1N1CCOCC1 [Compound 47]		≤ 50
10 to 30	< 10	O=C(N[C@H]1CCOc2ccccc21)c1cnc(Nc2cc(Cl)cc(Cl)c2)cc1N1CCOCC1 [Compound 107]		≤ 50
> 30	< 1	O=C(N[C@H]1CCOc2ccccc21)c1cnc(Oc2cc(Cl)cc(Cl)c2)cc1N1CCOCC1 [Compound 5]		
> 30	< 1	O=C(N[C@H]1CCOc2ccccc21)c1cnc(Oc2cccc(Cl)c2Cl)cc1N1CCOCC1 [Compound 12]		
> 30	< 1	O=C(N[C@H]1CCCc2ccccc21)c1cnc(Oc2cc(Cl)cc(Cl)c2)cc1N1CCOCC1 [Compound 8]		
> 30	< 1	O=C(N[C@H]1CCc2ccccc21)c1cnc(Oc2cccc(Cl)c2Cl)cc1N1CCOCC1 [Compound 7]		
> 30	< 1	O=C(N[C@H]1CCc2ccccc21)c1cnc(Sc2cc(Cl)cc(Cl)c2)cc1N1CCOCC1 [Compound 11]		
> 30		CSc1cc(Oc2cc(Cl)cc(Cl)c2)ncc1C(=O)N[C@H]1CCc2ccccc21 [Compound 61]		≤ 50
> 30	< 1	O=C(N[C@H]1CCCc2ccccc21)c1cnc(Sc2cc(Cl)cc(Cl)c2)cc1N1CCOCC1 [Compound 9]		
> 30		O=C(N[C@H]1CCc2ccccc21)c1cnc(Oc2cc(Cl)cc(Cl)c2)cc1N1CCOCC1 [Compound 25, (S)-6-(3,5-dichlorophenoxy)-N-(2,3-dihydro-1H-inden-1-yl)-4-morpholinonicotinamide]		
> 30		O=C(Nc1cccc2ccccc12)c1cnc(Sc2cc(Cl)cc(Cl)c2)cc1N1CCOCC1 [Compound 10]		≤ 50
> 30	< 10	CSc1cc(Oc2cc(Cl)cc(Cl)c2)ncc1C(=O)N[C@H]1CCCc2ccccc21 [Compound 59]		
> 30		CCOc1cc(Oc2cc(Cl)cc(Cl)c2)ncc1C(=O)N[C@H]1CCOc2ccccc21 [Compound 89]		
> 30		O=C(Nc1cccc2ccccc12)c1cnc(Sc2cccc(Cl)c2Cl)cc1N1CCOCC1 [Compound 49]		≤ 50
> 30	< 1	CN(C)c1cc(Oc2cc(Cl)cc(Cl)c2)ncc1C(=O)N[C@H]1CCOc2ccccc21 [Compound 30]		
> 30	< 1	O=C(N[C@H]1CCCc2ccccc21)c1cnc(Oc2cccc(Cl)c2Cl)cc1N1CCOCC1 [Compound 6]		
> 30		CCOc1cc(Oc2cc(Cl)cc(Cl)c2)ncc1C(=O)N[C@H]1CCCc2ccccc21 [Compound 98]		
> 30		O=C(Nc1csc2ccccc12)c1cnc(Sc2cc(Cl)cc(Cl)c2)cc1N1CCOCC1 [Compound 27]		≤ 50
> 30		CN(C)c1cc(Oc2cc(Cl)cc(Cl)c2)ncc1C(=O)Nc1csc2ccccc12 [Compound 38]		
